Assay results from patent US12378220B2, “WNT signaling pathway inhibitors for treatments of disease” (University of Maryland, Baltimore, priority 2016, dated 2025).

These compounds were tested on Wnt/β-catenin pathway (assay: dual-luciferase TCF/LEF reporter assay, LiCl-activated, HEK293 cells). Conditions: Homo sapiens, HEK293, 24 h; At 1 μM concentration; remaining Wnt signaling activity; read-out: RLU % (Relative Light Units in reporter gene assays).
Type: cell-based
Procedure: Lithium chloride (LiCl), which has been previously established as an activator of the Wnt/β-catenin pathway through its direct and indirect effects on GSK3β was used for pathway activation. The inhibition of the Wnt/β-catenin pathway by a compound may be determined after its incubation with cells for 24 hours.
The assay provided herein is a dual-luciferase assay to measure Wnt/β-catenin pathway activation using a TCF/LEF responsive reporter construct similar to that described previously (Thorne et al., 2010).

**Q.** Cc1ccc(-n2c(C)cc(C(=O)NCc3ccccc3)c2C)cc1 [YW1104, N-Benzyl-2,5-dimethyl-1-(p-tolyl)-1H-pyrrole-3-carboxamide] was tested. Which activity at 1 µM did it give?
**A.** 92.9%

**Q.** How did the activity at 1 µM turn out when Cc1ccc(-n2c(C)cc(C(=O)Nc3ccccn3)c2C)cc1 [YW1109, 2,5-Dimethyl-N-(pyridin-2-yl)-1-(p-tolyl)-1H-pyrrole-3-carboxamide] was run?
**A.** 79.8%

**Q.** Cc1ccc(-n2c(C)cc(C(=O)Nc3nc(-c4ccccc4)cs3)c2C)cc1 [YW1114, 2,5-Dimethyl-N-(4-phenylthiazol-2-yl)-1-(p-tolyl)-1H-pyrrole-3-carboxamide] was tested. Which activity at 1 µM did it give?
**A.** 34.6%

**Q.** With Cc1ccc(-n2c(C)cc(C(=O)Nc3cnccn3)c2C)cc1 [YW1117-2, 2,5-Dimethyl-N-(pyrazin-2-yl)-1-(p-tolyl)-1H-pyrrole-3-carboxamide] as the compound, how does the activity at 1 µM read?
**A.** 113%

**Q.** For Cc1ccc(-n2nnc(C(=O)Nc3ccccn3)c2C)cc1 [YW1119, 5-Methyl-N-(pyridin-2-yl)-1-(p-tolyl)-1H-1,2,3-triazole-4-carboxamide], which activity at 1 µM is on record?
**A.** 106%

**Q.** With Cc1ccc(-n2nnc(C(=O)NCc3ccccn3)c2C)cc1 [YW1121, 5-Methyl-N-(pyridin-2-ylmethyl)-1-(p-tolyl)-1H-1,2,3-triazole-4-carboxamide] as the compound, how does the activity at 1 µM read?
**A.** 92.1%

**Q.** For Cc1ccc(-n2nnc(C(=O)Nc3ccc4c(=O)cc(C)oc4c3)c2C)cc1 [YW1123, 5-Methyl-N-(2-methyl-4-oxo-4H-chromen-7-yl)-1-(p-tolyl)-1H-1,2,3-triazole-4-carboxamide], which activity at 1 µM is on record?
**A.** 87.6%

**Q.** Cc1ccc(-n2nnc(C(=O)Nc3cc(C)no3)c2C)cc1 [YW1124, 5-Methyl-N-(3-methylisoxazol-5-yl)-1-(p-tolyl)-1H-1,2,3-triazole-4-carboxamide] was tested. Which activity at 1 µM did it give?
**A.** 121%

**Q.** How did the activity at 1 µM turn out when Cc1ccc(-n2nnc(C(=O)Nc3nc(-c4ccccc4)c(-c4ccccc4)s3)c2C)cc1 [YW1125, N-(4,5-diphenylthiazol-2-yl)-5-methyl-1-(p-tolyl)-1H-1,2,3-triazole-4-carboxamide] was run?
**A.** 55.1%

**Q.** Cc1ccc(-n2nnc(C(=O)Nc3ccc4ccccc4n3)c2C)cc1 [YW1127, 5-Methyl-N-(quinolin-2-yl)-1-(p-tolyl)-1H-1,2,3-triazole-4-carboxamide] was tested. Which activity at 1 µM did it give?
**A.** 56.4%

Same assay, conditions: Homo sapiens, HEK293; Table 3, values in nM; read-out: IC50

**Q.** For Cc1ccc(-n2c(C)cc(C(=O)Nc3nc(-c4ccccc4)cs3)c2C)cc1 [YW1114, 2,5-Dimethyl-N-(4-phenylthiazol-2-yl)-1-(p-tolyl)-1H-pyrrole-3-carboxamide], which IC50 is on record?
**A.** 379 nM

Same assay, conditions: Homo sapiens, HEK293; Table 3, values in μM; read-out: IC50

**Q.** Which IC50 does the source give for Cc1ccc(-n2c(C)cc(C(=O)NCc3ccccc3)c2C)cc1 [YW1104, N-Benzyl-2,5-dimethyl-1-(p-tolyl)-1H-pyrrole-3-carboxamide] here?
**A.** 49000 nM

**Q.** How did the IC50 turn out when Cc1ccc(-n2nnc(C(=O)Nc3cc(C)no3)c2C)cc1 [YW1124, 5-Methyl-N-(3-methylisoxazol-5-yl)-1-(p-tolyl)-1H-1,2,3-triazole-4-carboxamide] was run?
**A.** 48000 nM

Same assay, conditions: Homo sapiens, HEK293; Table 4, @ 1 μM; read-out: IC50 (nM) or remaining activity at 1 μM: remaining activity

**Q.** How did the activity at 1 µM turn out when Cc1ccc(-n2c(C)cc(C(=O)Nc3ccccn3)c2C)cc1 [Compound 14, 2,5-dimethyl-N-(pyridin-2-yl)-1-(p-tolyl)-1H-pyrrole-3-carboxamide] was run?
**A.** 79.8%

**Q.** How did the activity at 1 µM turn out when Cc1ccc(-n2c(C)cc(C(=O)Nc3cnccn3)c2C)cc1 [Compound 15, 2,5-Dimethyl-N-(pyrazin-2-yl)-1-(p-tolyl)-1H-pyrrole-3-carboxamide] was run?
**A.** 112%

**Q.** With Cc1ccc(-n2c(C)cc(C(=O)NCc3ccccc3)c2C)cc1 [Compound 17, N-benzyl-2,5-dimethyl-1-(p-tolyl)-1H-pyrrole-3-carboxamide] as the compound, how does the activity at 1 µM read?
**A.** 93%

Same assay, conditions: Homo sapiens, HEK293; Table 4, LiCl-mediated WNT signaling; read-out: IC50 (nM) or remaining activity at 1 μM: IC50

**Q.** For Cc1ccc(-n2c(C)cc(C(=O)Nc3nc(-c4ccccc4)cs3)c2C)cc1 [Compound 16, 2,5-dimethyl-N-(4-phenylthiazol-2-yl)-1-(p-tolyl)-1H-pyrrole-3-carboxamide], which IC50 is on record?
**A.** 379 nM

Same assay, conditions: Homo sapiens, HEK293; Table 5, @ 1 μM; read-out: IC50 (nM) or remaining activity at 1 μM: remaining activity

**Q.** Which activity at 1 µM does the source give for Cc1ccc(-n2nnc(C(=O)Nc3ccccn3)c2C)cc1 [Compound 20, 5-Methyl-N-(pyridin-2-yl)-1-(p-tolyl)-1H-1,2,3-triazole-4-carboxamide] here?
**A.** 100%

Same assay, conditions: Homo sapiens, HEK293; Table 5; read-out: IC50 (nM) or remaining activity at 1 μM: IC50

**Q.** For Cc1ccc(-n2nnc(C(=O)Nc3cccc(C)n3)c2C)cc1 [Compound 21, 5-Methyl-N-(6-methylpyridin-2-yl)-1-(p-tolyl)-1H-1,2,3-triazole-4-carboxamide], which IC50 is on record?
**A.** 273 nM

**Q.** With Cc1ccc(-n2nnc(C(=O)Nc3nc(-c4ccccc4)c(-c4ccccc4)s3)c2C)cc1 [Compound 22, N-(4,5-diphenylthiazol-2-yl)-5-methyl-1-(p-tolyl)-1H-1,2,3-triazole-4-carboxamide] as the compound, how does the IC50 read?
**A.** 1000 nM

**Q.** How did the IC50 turn out when Cc1ccc(-n2nnc(C(=O)Nc3cc(C)no3)c2C)cc1 [Compound 24, 5-Methyl-N-(3-methylisoxazol-5-yl)-1-(p-tolyl)-1H-1,2,3-triazole-4-carboxamide] was run?
**A.** 48000 nM

**Q.** How did the IC50 turn out when Cc1ccc(-n2nnc(C(=O)NCc3ccccn3)c2C)cc1 [Compound 25, 5-Methyl-N-(pyridin-2-ylmethyl)-1-(p-tolyl)-1H-1,2,3-triazole-4-carboxamide] was run?
**A.** > 1000 nM

**Q.** For Cc1ccc(-n2nnc(C(=O)Nc3ccc4c(=O)cc(C)oc4c3)c2C)cc1 [Compound 26, 5-Methyl-N-(2-methyl-4-oxo-4H-chromen-7-yl)-1-(p-tolyl)-1H-1,2,3-triazole-4-carboxamide], which IC50 is on record?
**A.** > 1000 nM

Same assay, conditions: Homo sapiens, HEK293; Table 6, @ 1 μM; read-out: IC50 (nM) or remaining activity at 1 μM: remaining activity

**Q.** For Cc1ccc(-n2nnc(C(=O)Nc3ccc4ccccc4n3)c2C)cc1 [Compound 27, 5-Methyl-N-(quinolin-2-yl)-1-(p-tolyl)-1H-1,2,3-triazole-4-carboxamide], which activity at 1 µM is on record?
**A.** 56.4 ± 2%

Same assay, conditions: Homo sapiens, HEK293; Table 6; read-out: IC50 (nM) or remaining activity at 1 μM: IC50

**Q.** Cc1ccccc1-n1nnc(C(=O)Nc2ccc3ccccc3n2)c1C [Compound 28, 5-Methyl-N-(quinolin-2-yl)-1-(o-tolyl)-1H-1,2,3-triazole-4-carboxamide] was tested. Which IC50 did it give?
**A.** 6.3 nM

**Q.** How did the IC50 turn out when Cc1ccc(-n2nnc(C(=O)Nc3ccc4ccccc4n3)c2C)c(C)c1 [Compound 32, 1-(2,4-Dimethylphenyl)-5-methyl-N-(quinolin-2-yl)-1H-1,2,3-triazole-4-carboxamide] was run?
**A.** 130 nM

**Q.** Which IC50 does the source give for Cc1c(C(=O)Nc2ccc3ccccc3n2)nnn1-c1ccccc1F [Compound 33, 1-(2-Fluorophenyl)-5-methyl-N-(quinolin-2-yl)-1H-1,2,3-triazole-4-carboxamide] here?
**A.** 6.5 nM

**Q.** With Cc1c(C(=O)Nc2ccc3ccccc3n2)nnn1-c1ccccc1C#N [Compound 34, 1-(2-Cyanophenyl)-5-methyl-N-(quinolin-2-yl)-1H-1,2,3-triazole-4-carboxamide] as the compound, how does the IC50 read?
**A.** 76 nM

**Q.** COc1ccccc1-n1nnc(C(=O)Nc2ccc3ccccc3n2)c1C [Compound 35, 1-(2-Methoxyphenyl)-5-methyl-N-(quinolin-2-yl)-1H-1,2,3-triazole-4-carboxamide] was tested. Which IC50 did it give?
**A.** 88 nM

**Q.** How did the IC50 turn out when Cc1c(C(=O)Nc2ccc3ccccc3n2)nnn1-c1ccccc1Br [Compound 36, 1-(2-Bromophenyl)-5-methyl-N-(quinolin-2-yl)-1H-1,2,3-triazole-4-carboxamide] was run?
**A.** 10 nM

**Q.** With Cc1c(C(=O)Nc2ccc3ccccc3n2)nnn1-c1ccccc1N1CCOCC1 [Compound 37, 5-Methyl-1-(2-morpholinophenyl)-N-(quinolin-2-yl)-1H-1,2,3-triazole-4-carboxamide] as the compound, how does the IC50 read?
**A.** > 1000 nM

**Q.** How did the IC50 turn out when Cc1c(C(=O)Nc2ccc3ccccc3n2)nnn1-c1ccccc1-c1ccccc1 [Compound 38, 1-([1,1′-biphenyl]-2-yl)-5-methyl-N-(quinolin-2-yl)-1H-1,2,3-triazole-4-carboxamide] was run?
**A.** 52000 nM

**Q.** How did the IC50 turn out when CC(=O)c1ccccc1-n1nnc(C(=O)Nc2ccc3ccccc3n2)c1C [Compound 39, 1-(2-Acetylphenyl)-5-methyl-N-(quinolin-2-yl)-1H-1,2,3-triazole-4-carboxamide] was run?
**A.** 814 nM

**Q.** For Cc1c(C(=O)Nc2ccc3ccccc3n2)nnn1-c1ccccc1C(N)=O [Compound 40, 1-(2-Carbamoylphenyl)-5-methyl-N-(quinolin-2-yl)-1H-1,2,3-triazole-4-carboxamide], which IC50 is on record?
**A.** > 100000 nM

**Q.** With Cc1c(C(=O)Nc2ccc3ccccc3n2)nnn1-c1ccc(F)cc1[N+](=O)[O-] [Compound 41, 1-(4-Fluoro-2-nitrophenyl)-5-methyl-N-(quinolin-2-yl)-1H-1,2,3-triazole-4-carboxamide] as the compound, how does the IC50 read?
**A.** 5000 nM

**Q.** Cc1cccc(-n2nnc(C(=O)Nc3ccc4ccccc4n3)c2C)c1C [Compound 42, 1-(2,3-Dimethylphenyl)-5-methyl-N-(quinolin-2-yl)-1H-1,2,3-triazole-4-carboxamide] was tested. Which IC50 did it give?
**A.** 567 nM

**Q.** How did the IC50 turn out when Cc1c(C(=O)Nc2ccc3ccccc3n2)nnn1-c1cccc2ccccc12 [Compound 43, 5-Methyl-1-(naphthalen-1-yl)-N-(quinolin-2-yl)-1H-1,2,3-triazole-4-carboxamide] was run?
**A.** 4000 nM

**Q.** Cc1c(C(=O)Nc2ccc3ccccc3n2)nnn1-c1cccc(Cl)c1 [Compound 44, 1-(3-Chlorophenyl)-5-methyl-N-(quinolin-2-yl)-1H-1,2,3-triazole-4-carboxamide] was tested. Which IC50 did it give?
**A.** 731 nM

Same assay, conditions: Table 7; read-out: IC50

**Q.** For Cc1ccccc1-n1nnc(C(=O)Nc2nc3ccccc3s2)c1C [Compound 29, N-(benzo[d]thiazol-2-yl)-5-methyl-1-(o-tolyl)-1H-1,2,3-triazole-4-carboxamide], which IC50 is on record?
**A.** 34 nM

**Q.** Cc1ccccc1-n1nnc(C(=O)Nc2nc(-c3ccccc3)cs2)c1C [Compound 30, 5-Methyl-N-(4-phenylthiazol-2-yl)-1-(o-tolyl)-1H-1,2,3-triazole-4-carboxamide] was tested. Which IC50 did it give?
**A.** 22000 nM

**Q.** Which IC50 does the source give for Cc1ccccc1-n1nnc(C(=O)Nc2ccc3ccccc3c2)c1C [Compound 31, 5-Methyl-N-(naphthalen-2-yl)-1-(o-tolyl)-1H-1,2,3-triazole-4-carboxamide] here?
**A.** 471 nM

**Q.** How did the IC50 turn out when CCc1c(C(=O)Nc2ccc3ccccc3n2)nnn1-c1ccccc1F [Compound 45, 5-Ethyl-1-(2-fluorophenyl)-N-(quinolin-2-yl)-1H-1,2,3-triazole-4-carboxamide] was run?
**A.** 47 nM

**Q.** With CC(C)c1c(C(=O)Nc2ccc3ccccc3n2)nnn1-c1ccccc1F [Compound 46, 1-(2-Fluorophenyl)-5-isopropyl-N-(quinolin-2-yl)-1H-1,2,3-triazole-4-carboxamide] as the compound, how does the IC50 read?
**A.** 177 nM
